Measured values as given in the kinase profiling compilation of Christmann-Franck et al. (2016).
Several values for one entry are separate records, joined by “and”; a condition that tells them apart may be missing. Identical values can stand only once. One block for each compound: values may come before it.

Tests used:
Experiment in all cases: radiometric filter-binding kinase assay
[1] = biological target: PRKAA1 PRKAB2 PRKAG1 (human) (UniProt O43741+Q13131+P54619)
[2] = biological target: EPHA2 (human) (UniProt P29317)
[3] = biological target: PAK4 (human) (UniProt O96013)
[4] = biological target: NUAK1 (human) (UniProt O60285)
[5] = biological target: DYRK2 (human) (UniProt Q92630)
[6] = biological target: MAPK14 (human) (UniProt Q16539)
[7] = biological target: EPHB1 (human) (UniProt P54762)
[8] = biological target: IKBKB (human) (UniProt O14920)
[9] = biological target: CSNK2A1 (human) (UniProt P68400)
[10] = biological target: EPHB2 (human) (UniProt P29323)
[11] = biological target: GCK (human) (UniProt Q12851)
[12] = biological target: PDPK1 (human) (UniProt O15530); settings: compound 10.0 µM
[13] = biological target: MST4 (human) (UniProt Q9P289)
[14] = biological target: CLK2 (human) (UniProt P49760)
[15] = biological target: EEF2K (human) (UniProt O00418)
[16] = tested on: SGK1 (human), O00141 [S422D]
[17] = biological target: MARK2 (human) (UniProt Q7KZI7)
[18] = biological target: CAMKK2 (human) (UniProt Q96RR4)
[19] = biological target: BTK (human) (UniProt Q06187)
[20] = biological target: MAP2K6 (human) (UniProt P52564)
[21] = biological target: NEK2 (human) (UniProt P51955)
[22] = tested on: ROCK2 (rat); settings: accession and sequence are those of the human protein
[23] = biological target: MAP3K9 (human) (UniProt P80192)
[24] = tested on: RPS6KB1 (human), P23443 [T412E]
[25] = biological target: PLK1 (human) (UniProt P53350)
[26] = biological target: GSK3B (human) (UniProt P49841)
[27] = biological target: JAK2 JH1 JH2 (human) (UniProt O60674)
[28] = biological target: MARK3 (human) (UniProt P27448)
[29] = biological target: EPHB4 (human) (UniProt P54760)
[30] = biological target: PIM2 (human) (UniProt Q9P1W9)
[31] = biological target: PRKACA (human) (UniProt P17612)
[32] = biological target: RPS6KA5 KD1 KD2 (human) (UniProt O75582)
[33] = biological target: MKNK2 (human) (UniProt Q9HBH9)
[34] = biological target: MAPK10 (human) (UniProt P53779)
[35] = biological target: MAPKAPK3 (human) (UniProt Q16644)

CAMKK2 (human), sequence (Q96RR4 whole entry, looked up): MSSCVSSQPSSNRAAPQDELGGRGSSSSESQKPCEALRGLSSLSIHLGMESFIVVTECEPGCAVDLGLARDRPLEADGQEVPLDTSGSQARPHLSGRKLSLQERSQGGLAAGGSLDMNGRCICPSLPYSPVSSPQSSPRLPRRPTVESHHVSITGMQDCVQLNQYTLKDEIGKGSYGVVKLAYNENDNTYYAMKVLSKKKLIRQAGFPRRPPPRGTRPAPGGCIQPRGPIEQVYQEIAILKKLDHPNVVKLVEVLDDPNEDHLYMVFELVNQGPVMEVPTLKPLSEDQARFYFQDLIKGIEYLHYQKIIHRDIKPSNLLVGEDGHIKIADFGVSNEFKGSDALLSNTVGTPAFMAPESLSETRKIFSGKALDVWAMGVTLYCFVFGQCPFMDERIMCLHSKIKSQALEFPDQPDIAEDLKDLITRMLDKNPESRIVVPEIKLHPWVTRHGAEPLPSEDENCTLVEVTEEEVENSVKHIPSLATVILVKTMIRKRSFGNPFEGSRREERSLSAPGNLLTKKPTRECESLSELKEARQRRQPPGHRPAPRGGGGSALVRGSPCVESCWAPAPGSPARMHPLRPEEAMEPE
EEF2K (human), sequence (O00418 whole entry, looked up): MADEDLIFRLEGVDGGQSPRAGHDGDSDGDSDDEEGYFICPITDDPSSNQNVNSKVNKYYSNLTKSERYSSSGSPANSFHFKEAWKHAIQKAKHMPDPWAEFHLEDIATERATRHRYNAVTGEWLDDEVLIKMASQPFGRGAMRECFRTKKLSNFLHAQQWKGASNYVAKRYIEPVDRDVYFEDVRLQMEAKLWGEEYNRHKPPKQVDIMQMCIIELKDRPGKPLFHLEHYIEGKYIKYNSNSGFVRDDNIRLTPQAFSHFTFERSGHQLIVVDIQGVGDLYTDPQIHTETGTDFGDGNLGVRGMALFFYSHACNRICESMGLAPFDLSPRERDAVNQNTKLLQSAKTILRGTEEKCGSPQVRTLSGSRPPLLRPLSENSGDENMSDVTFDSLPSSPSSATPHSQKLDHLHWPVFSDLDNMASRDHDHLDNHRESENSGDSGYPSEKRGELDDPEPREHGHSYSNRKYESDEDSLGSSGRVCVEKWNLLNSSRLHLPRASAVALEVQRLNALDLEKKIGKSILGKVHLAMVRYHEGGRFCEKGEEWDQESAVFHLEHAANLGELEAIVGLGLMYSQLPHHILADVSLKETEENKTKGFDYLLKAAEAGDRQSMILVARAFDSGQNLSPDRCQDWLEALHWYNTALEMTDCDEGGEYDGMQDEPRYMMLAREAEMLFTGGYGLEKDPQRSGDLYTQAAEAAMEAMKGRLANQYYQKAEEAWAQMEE
MAP3K9 (human), sequence (P80192 whole entry, looked up): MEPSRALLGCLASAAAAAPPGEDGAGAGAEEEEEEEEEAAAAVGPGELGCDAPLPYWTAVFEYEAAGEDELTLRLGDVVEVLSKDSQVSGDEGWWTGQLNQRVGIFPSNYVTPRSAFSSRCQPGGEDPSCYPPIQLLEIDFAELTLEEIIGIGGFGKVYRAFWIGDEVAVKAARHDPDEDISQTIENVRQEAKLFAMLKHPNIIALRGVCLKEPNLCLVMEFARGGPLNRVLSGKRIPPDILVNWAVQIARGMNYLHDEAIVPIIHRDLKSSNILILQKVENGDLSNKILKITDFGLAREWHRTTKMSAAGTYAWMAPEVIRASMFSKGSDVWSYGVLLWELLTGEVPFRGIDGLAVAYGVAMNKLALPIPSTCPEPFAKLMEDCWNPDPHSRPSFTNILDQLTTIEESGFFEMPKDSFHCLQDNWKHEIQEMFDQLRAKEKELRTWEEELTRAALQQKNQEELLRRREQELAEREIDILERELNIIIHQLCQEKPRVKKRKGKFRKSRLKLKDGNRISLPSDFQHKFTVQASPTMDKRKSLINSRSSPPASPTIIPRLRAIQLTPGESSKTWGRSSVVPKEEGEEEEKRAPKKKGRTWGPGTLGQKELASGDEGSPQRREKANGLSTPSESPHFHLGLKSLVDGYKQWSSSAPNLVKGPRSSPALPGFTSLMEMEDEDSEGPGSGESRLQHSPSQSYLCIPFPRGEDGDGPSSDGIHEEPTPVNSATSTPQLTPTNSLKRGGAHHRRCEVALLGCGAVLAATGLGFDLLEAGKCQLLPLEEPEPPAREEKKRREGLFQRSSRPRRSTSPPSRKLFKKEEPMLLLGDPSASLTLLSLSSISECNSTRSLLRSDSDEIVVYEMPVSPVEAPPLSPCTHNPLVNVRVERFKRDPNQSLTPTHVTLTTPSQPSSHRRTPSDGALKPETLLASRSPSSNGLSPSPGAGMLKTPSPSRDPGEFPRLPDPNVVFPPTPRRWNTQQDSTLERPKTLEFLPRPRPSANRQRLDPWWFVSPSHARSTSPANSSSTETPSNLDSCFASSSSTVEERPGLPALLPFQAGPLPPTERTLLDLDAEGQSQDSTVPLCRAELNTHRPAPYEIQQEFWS
GSK3B (human), sequence (P49841 whole entry, looked up): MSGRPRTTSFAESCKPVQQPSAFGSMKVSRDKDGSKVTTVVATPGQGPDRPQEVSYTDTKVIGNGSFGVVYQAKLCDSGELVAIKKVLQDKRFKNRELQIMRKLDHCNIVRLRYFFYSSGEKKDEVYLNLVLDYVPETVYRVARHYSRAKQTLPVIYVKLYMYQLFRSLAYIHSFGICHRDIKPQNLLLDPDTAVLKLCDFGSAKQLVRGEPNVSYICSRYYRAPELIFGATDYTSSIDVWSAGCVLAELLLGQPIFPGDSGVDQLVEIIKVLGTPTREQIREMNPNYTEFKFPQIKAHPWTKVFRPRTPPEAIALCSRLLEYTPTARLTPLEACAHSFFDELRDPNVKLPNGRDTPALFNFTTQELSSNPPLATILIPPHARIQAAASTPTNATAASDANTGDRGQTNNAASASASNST
DYRK2 (human), sequence (Q92630 whole entry, looked up): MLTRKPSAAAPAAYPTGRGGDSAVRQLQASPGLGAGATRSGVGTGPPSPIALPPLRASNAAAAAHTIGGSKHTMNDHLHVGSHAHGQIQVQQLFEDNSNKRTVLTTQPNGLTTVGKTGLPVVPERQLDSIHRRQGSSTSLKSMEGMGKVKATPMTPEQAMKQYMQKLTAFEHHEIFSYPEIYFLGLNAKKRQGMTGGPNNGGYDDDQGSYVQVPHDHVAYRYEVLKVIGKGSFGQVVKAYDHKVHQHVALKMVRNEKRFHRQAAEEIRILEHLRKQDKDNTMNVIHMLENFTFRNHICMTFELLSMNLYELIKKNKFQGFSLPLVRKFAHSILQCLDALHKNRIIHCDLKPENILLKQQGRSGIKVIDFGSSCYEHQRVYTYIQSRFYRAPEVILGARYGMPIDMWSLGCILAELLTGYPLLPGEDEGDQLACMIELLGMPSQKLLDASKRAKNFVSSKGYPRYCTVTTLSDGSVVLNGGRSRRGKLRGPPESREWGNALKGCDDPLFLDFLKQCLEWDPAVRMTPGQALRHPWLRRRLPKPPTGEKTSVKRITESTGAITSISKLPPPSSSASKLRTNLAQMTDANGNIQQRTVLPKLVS
RPS6KA5 KD1 KD2 (human), sequence (O75582 whole entry, looked up): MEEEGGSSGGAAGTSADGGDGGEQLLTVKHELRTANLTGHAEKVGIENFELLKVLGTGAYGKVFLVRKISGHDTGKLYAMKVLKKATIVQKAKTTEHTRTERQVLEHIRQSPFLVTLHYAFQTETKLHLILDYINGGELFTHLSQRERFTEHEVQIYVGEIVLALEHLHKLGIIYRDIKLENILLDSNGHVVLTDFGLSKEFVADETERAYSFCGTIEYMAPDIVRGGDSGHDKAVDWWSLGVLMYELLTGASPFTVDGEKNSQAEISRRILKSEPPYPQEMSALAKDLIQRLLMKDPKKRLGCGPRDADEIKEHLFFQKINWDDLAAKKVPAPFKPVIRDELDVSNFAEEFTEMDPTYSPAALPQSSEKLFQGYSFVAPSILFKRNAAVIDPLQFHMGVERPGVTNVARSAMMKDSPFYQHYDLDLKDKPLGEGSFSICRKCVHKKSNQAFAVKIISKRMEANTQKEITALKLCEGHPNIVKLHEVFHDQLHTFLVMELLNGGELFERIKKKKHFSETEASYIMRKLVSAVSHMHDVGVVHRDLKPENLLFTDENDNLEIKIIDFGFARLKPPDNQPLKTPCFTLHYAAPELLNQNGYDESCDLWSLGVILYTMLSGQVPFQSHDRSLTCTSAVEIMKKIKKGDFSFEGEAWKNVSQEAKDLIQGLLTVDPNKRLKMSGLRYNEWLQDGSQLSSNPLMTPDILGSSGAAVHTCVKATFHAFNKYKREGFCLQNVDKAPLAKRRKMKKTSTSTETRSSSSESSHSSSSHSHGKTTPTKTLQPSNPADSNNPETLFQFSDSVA
MAP2K6 (human), sequence (P52564 whole entry, looked up): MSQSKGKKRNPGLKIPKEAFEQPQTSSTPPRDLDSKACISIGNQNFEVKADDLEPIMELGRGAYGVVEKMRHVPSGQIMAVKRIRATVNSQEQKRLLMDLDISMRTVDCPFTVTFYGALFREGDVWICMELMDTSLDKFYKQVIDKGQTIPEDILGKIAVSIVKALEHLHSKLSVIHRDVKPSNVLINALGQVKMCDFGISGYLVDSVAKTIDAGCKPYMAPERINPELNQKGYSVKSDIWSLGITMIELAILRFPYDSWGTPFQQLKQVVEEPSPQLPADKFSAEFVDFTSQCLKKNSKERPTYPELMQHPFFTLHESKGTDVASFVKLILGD
SGK1 (human), O00141 [S422D], sequence (O00141 whole entry S422D, looked up): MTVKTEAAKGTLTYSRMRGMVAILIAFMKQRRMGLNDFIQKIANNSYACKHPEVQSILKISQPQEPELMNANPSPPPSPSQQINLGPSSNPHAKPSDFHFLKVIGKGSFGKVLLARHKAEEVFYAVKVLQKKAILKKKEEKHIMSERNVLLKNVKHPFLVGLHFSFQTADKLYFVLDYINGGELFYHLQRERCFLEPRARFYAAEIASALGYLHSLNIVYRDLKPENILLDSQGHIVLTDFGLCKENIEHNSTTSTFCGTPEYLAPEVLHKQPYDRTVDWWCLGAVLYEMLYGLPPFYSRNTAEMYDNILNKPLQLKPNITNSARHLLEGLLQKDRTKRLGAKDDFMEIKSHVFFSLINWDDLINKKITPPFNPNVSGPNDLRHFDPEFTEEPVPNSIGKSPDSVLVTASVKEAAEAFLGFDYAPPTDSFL

residual activity ([1]; compound 10.0 µM): 83%
residual activity ([2]; compound 10.0 µM): 103%
residual activity ([3]; compound 10.0 µM): 74%
residual activity ([4]; compound 10.0 µM): 42%
residual activity ([4]; compound 100.0 µM): 11%
residual activity ([5]; compound 10.0 µM): 50%
residual activity ([5]; compound 100.0 µM): 8%
residual activity ([6]; compound 10.0 µM): 91%
residual activity ([6]; compound 100.0 µM): 78%
residual activity ([7]; compound 10.0 µM): 93%
residual activity ([8]; compound 10.0 µM): 56%
residual activity ([9]; compound 10.0 µM): 63%
residual activity ([10]; compound 10.0 µM): 93%
residual activity ([11]; compound 10.0 µM): 63%
residual activity [12]: 84% and 86%
residual activity ([13]; compound 10.0 µM): 96%
residual activity ([14]; compound 10.0 µM): 18%
residual activity ([14]; compound 100.0 µM): 3%
residual activity ([15]; compound 10.0 µM): 77%
residual activity ([16]; compound 10.0 µM): 96%
residual activity ([17]; compound 10.0 µM): 48%
residual activity ([17]; compound 100.0 µM): 71%
residual activity ([18]; compound 10.0 µM): 62%
residual activity ([19]; compound 10.0 µM): 26%
residual activity ([19]; compound 100.0 µM): 38%
residual activity ([20]; compound 10.0 µM): 94%
residual activity ([21]; compound 10.0 µM): 42%
residual activity ([21]; compound 100.0 µM): 14%
residual activity ([22]; compound 10.0 µM): 80%
residual activity ([23]; compound 10.0 µM): 95%
residual activity ([23]; compound 100.0 µM): 9%
residual activity ([24]; compound 10.0 µM): 64%
residual activity ([25]; compound 10.0 µM): 35%
residual activity ([25]; compound 100.0 µM): 22%
residual activity ([26]; compound 10.0 µM): 48%
residual activity ([26]; compound 100.0 µM): 19%
residual activity ([27]; compound 10.0 µM): 63%
residual activity ([28]; compound 10.0 µM): 84%
residual activity ([29]; compound 10.0 µM): 97%
residual activity ([30]; compound 10.0 µM): 63%
residual activity ([31]; compound 10.0 µM): 91%
residual activity ([32]; compound 10.0 µM): 88%
residual activity ([33]; compound 10.0 µM): 65%
residual activity ([34]; compound 10.0 µM): 70%
residual activity ([34]; compound 100.0 µM): 44%
residual activity ([35]; compound 10.0 µM): 23%
residual activity ([35]; compound 100.0 µM): 5%
Compound: Cc1nc(N)sc1-c1csc(Nc2cccnc2)n1

residual activity ([1]; compound 1.0 µM): 70%
residual activity ([1]; compound 10.0 µM): 31%
residual activity ([2]; compound 1.0 µM): 78%
residual activity ([2]; compound 10.0 µM): 42%
residual activity ([3]; compound 1.0 µM): 80%
residual activity ([3]; compound 10.0 µM): 25%
residual activity ([4]; compound 1.0 µM): 38%
residual activity ([4]; compound 10.0 µM): 21%
residual activity ([5]; compound 1.0 µM): 12%
residual activity ([5]; compound 10.0 µM): 2%
residual activity ([6]; compound 1.0 µM): 94%
residual activity ([6]; compound 10.0 µM): 86%
residual activity ([7]; compound 1.0 µM): 108%
residual activity ([7]; compound 10.0 µM): 70%
residual activity ([8]; compound 1.0 µM): 75%
residual activity ([8]; compound 10.0 µM): 38%
residual activity ([9]; compound 1.0 µM): 81%
residual activity ([9]; compound 10.0 µM): 28%
residual activity ([10]; compound 1.0 µM): 111%
residual activity ([10]; compound 10.0 µM): 47%
residual activity ([11]; compound 1.0 µM): 13%
residual activity ([11]; compound 10.0 µM): 4%
residual activity [12]: 33% and 37%
residual activity ([13]; compound 1.0 µM): 58%
residual activity ([13]; compound 10.0 µM): 17%
residual activity ([14]; compound 1.0 µM): 16%
residual activity ([14]; compound 10.0 µM): 3%
residual activity ([15]; compound 1.0 µM): 94%
residual activity ([15]; compound 10.0 µM): 96%
residual activity ([16]; compound 1.0 µM): 72%
residual activity ([16]; compound 10.0 µM): 30%
residual activity ([17]; compound 1.0 µM): 62%
residual activity ([17]; compound 10.0 µM): 43%
residual activity ([18]; compound 1.0 µM): 45%
residual activity ([18]; compound 10.0 µM): 22%
residual activity ([19]; compound 1.0 µM): 95%
residual activity ([19]; compound 10.0 µM): 62%
residual activity ([20]; compound 1.0 µM): 80%
residual activity ([20]; compound 10.0 µM): 27%
residual activity ([21]; compound 1.0 µM): 129%
residual activity ([21]; compound 10.0 µM): 95%
residual activity ([22]; compound 1.0 µM): 75%
residual activity ([22]; compound 10.0 µM): 32%
residual activity ([23]; compound 1.0 µM): 11%
residual activity ([23]; compound 10.0 µM): 6%
residual activity ([24]; compound 1.0 µM): 75%
residual activity ([24]; compound 10.0 µM): 30%
residual activity ([25]; compound 1.0 µM): 113%
residual activity ([25]; compound 10.0 µM): 110%
residual activity ([26]; compound 1.0 µM): 87%
residual activity ([26]; compound 10.0 µM): 51%
residual activity ([27]; compound 1.0 µM): 26%
residual activity ([27]; compound 10.0 µM): 6%
residual activity ([28]; compound 1.0 µM): 41%
residual activity ([28]; compound 10.0 µM): 14%
residual activity ([29]; compound 1.0 µM): 113%
residual activity ([29]; compound 10.0 µM): 78%
residual activity ([30]; compound 1.0 µM): 78%
residual activity ([30]; compound 10.0 µM): 29%
residual activity ([31]; compound 1.0 µM): 88%
residual activity ([31]; compound 10.0 µM): 88%
residual activity ([32]; compound 1.0 µM): 75%
residual activity ([32]; compound 10.0 µM): 49%
residual activity ([33]; compound 1.0 µM): 61%
residual activity ([33]; compound 10.0 µM): 29%
residual activity ([34]; compound 1.0 µM): 48%
residual activity ([34]; compound 10.0 µM): 17%
residual activity ([35]; compound 1.0 µM): 113%
residual activity ([35]; compound 10.0 µM): 66%
Compound: O=C1c2ccccc2-c2n[nH]c3cccc1c23
